Assays:
[1] = system: SW620 cells; test: MTT antiproliferation assay, SW620; assay type: cell-based; conditions: Homo sapiens, SW-620, 48 h, n = 3, read-out: IC50 ± SD SW620
Description: (§1) MCF-7 (human breast cell line), HeLa (human cervical cell line), A549 (human lung cell line), HepG2 (human liver cell line), SW620 (human colorectal cell line) and a non-cancer cell line, NCM460 (Human colonic epithelial cells) were preserved at the State Key Laboratory of Pharmaceutical Biotechnology, Nanjing University (Nanjing, China).
(§2) The antiproliferative activity of the synthetic compounds against the SW620, MCF-7, HeLa, A549, HepG2, and NUM460 cell lines was evaluated by a colorimetric assay based on a modified standard (MTT). […] Thereafter, MTT (5 mg/mL in PBS) was added to each well and incubated for 4 h. 150 μL of DMSO was added to each well and shaken with a shaker. The absorbance (OD 570 nm) was read at 630 nm on an ELISA reader (ELx800, BioTek, montpelier, VT, USA). IC50 values for the compounds were calculated by comparison to DMSO treated control wells. Three replicate wells were used for each drug concentration. Each assay was performed three times.

[2] = target: T1, COX-2 (Homo sapiens, UniProt P35354); test: COX-2 inhibition assay (COX-2 ELISA kit); assay type: biochemical; conditions: for Selectivity Index (SI) (COX-1 IC50/COX-2 IC50): in vitro COX-2 selectivity index; for IC50: mean of four determinations, read-out: IC50 ± SD COX-2
T1 construct: purchased Cayman Chemical 701180
T1 sequence (P35354 18-604): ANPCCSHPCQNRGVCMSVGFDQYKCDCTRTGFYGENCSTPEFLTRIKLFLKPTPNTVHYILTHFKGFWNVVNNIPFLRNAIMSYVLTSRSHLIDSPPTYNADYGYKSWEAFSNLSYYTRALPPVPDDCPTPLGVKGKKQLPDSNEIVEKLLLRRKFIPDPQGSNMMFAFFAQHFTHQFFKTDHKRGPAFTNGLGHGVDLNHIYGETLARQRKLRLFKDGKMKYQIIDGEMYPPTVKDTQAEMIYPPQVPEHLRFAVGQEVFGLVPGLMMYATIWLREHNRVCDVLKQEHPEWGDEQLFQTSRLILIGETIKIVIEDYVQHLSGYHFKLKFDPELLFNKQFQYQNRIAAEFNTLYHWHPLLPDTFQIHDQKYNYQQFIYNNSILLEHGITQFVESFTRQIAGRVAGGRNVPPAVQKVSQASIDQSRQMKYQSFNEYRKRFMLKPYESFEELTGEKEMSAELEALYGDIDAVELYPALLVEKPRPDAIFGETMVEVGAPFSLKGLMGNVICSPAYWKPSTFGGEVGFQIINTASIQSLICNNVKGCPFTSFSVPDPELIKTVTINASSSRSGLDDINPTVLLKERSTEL
Description: (§3) 3-(4,5-Dimethylthiazol-2-yl)-2,5-diphenyltetrazolium (MTT) were purchased from Beyotime Institute of Biotechnology (Haimen, China). Annexcin V-FITC cell apoptosis assay kit (catalog No.BA11100) was purchased from BIO-BOX (Nanjing, China). Fibronectin (#F1056) and laminin (#L2020) were purchased from Sigma-Aldrich (St. Louis, MO, USA).
(§4) Then 1 M HCl was added to the reaction mixture to stop the reaction, and one-tenth of the volume of saturated stannous chloride (50 mg/mL) was added. The reaction mixture was incubated at room temperature for 5 min, and PGF2 and PGH2 were produced.

[3] = system: HeLa; test: MTT antiproliferation assay, HeLa; assay type: cell-based; conditions: Homo sapiens, 48 h, n = 3, read-out: IC50 ± SD HeLa
Description: as §1, §2

[4] = MTT cytotoxicity assay, non-cancer colon cells; assay type: cell-based; conditions: human, NCM460 colonic epithelial cells (non-cancer cell line), n = 3, non-cancer cell line, read-out: CC50 ± SD NUM460
Description: Besides, the MTT assay was performed on a non-cancer line NCM460 to assess the cytotoxicity of the test compound to normal colon cells.
as §1, §2

[5] = system: HepG2; test: MTT antiproliferation assay, HepG2; assay type: cell-based; conditions: Homo sapiens, 48 h, n = 3, read-out: IC50 ± SD HepG2
Description: as §1, §2

[6] = system: A549; test: MTT antiproliferation assay, A549; assay type: cell-based; conditions: Homo sapiens, 48 h, n = 3, read-out: IC50 ± SD A549
Description: as §1, §2

[7] = system: MCF-7; test: MTT antiproliferation assay, MCF-7; assay type: cell-based; conditions: Homo sapiens, MCF7, 48 h, n = 3, read-out: IC50 ± SD MCF-7
Description: as §1, §2

[8] = target: T2, COX-1 (Homo sapiens, UniProt P23219); test: COX-1 inhibition assay (COX-1 ELISA kit); assay type: biochemical; conditions: mean of four determinations; read-out: IC50 ± SD COX-1
T2 construct: purchased Cayman Chemical 701170
T2 sequence (P23219 24-599): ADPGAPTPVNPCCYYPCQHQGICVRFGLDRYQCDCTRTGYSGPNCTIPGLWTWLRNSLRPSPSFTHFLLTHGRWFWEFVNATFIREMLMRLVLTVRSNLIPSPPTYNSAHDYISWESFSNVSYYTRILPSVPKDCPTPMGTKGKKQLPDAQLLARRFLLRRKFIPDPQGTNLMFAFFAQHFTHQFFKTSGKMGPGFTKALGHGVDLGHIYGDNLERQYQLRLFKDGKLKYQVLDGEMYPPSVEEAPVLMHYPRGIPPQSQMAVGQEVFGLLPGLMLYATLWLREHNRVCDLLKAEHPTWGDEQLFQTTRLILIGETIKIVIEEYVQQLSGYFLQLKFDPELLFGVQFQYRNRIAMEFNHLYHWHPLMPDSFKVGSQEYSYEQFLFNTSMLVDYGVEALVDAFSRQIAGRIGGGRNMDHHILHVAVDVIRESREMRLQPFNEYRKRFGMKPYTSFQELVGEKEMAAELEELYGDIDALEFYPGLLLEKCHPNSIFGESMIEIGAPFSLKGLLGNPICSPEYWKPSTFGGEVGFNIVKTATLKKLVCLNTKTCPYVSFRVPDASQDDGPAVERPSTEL
Description: as §3, §4

Row | Compound | IC50 [1] | Selectivity Index (SI) (COX-1 IC50/COX-2 IC50) [2] | IC50 [2] | melting point | IC50 [3] | CC50 at 48 h [4] | IC50 [5] | IC50 [6] | IC50 [7] | IC50 [8]
1 | Cc1ccc(C2=NN(c3ccc(S(N)(=O)=O)cc3)C(c3ccc4c(c3)OCO4)C2)cc1C (centres unmarked) [Compound 4f, 4-(5-(Benzo[d][1,3]dioxol-5-yl)-3-(3,4-dimethylphenyl)-4,5-dihydro-1H-pyrazol-1-yl)benzenesulfonamide] | 4.34 ± 0.33 µM | 33.61 | 1730 ± 110 nM | 179 to 180 °C | 8.05 ± 0.77 µM | 129 ± 8.96 µM | 11.2 ± 1.03 µM | 5.49 ± 0.44 µM | 7.21 ± 0.62 µM | 58.14 ± 0.47 µM
2 | COc1cccc(C2=NN(c3ccc(S(N)(=O)=O)cc3)C(c3ccc4c(c3)OCO4)C2)c1 (centres unmarked) [Compound 4g, 4-(5-(Benzo[d][1,3]dioxol-5-yl)-3-(3-methoxyphenyl)-4,5-dihydro-1H-pyrazol-1-yl)benzenesulfonamide] | 7.99 ± 0.56 µM | >18.87 | 3180 ± 260 nM | 219 to 221 °C | 14.6 ± 0.96 µM | 211 ± 18.2 µM | 18.2 ± 1.15 µM | 9.42 ± 0.74 µM | 12.7 ± 0.89 µM | > 60 µM
3 | NS(=O)(=O)c1ccc(N2N=C(c3ccc(I)cc3)CC2c2ccc3c(c2)OCCO3)cc1 (centres unmarked) [Compound 4r, 4-(5-(2,3-Dihydrobenzo[b][1,4]dioxin-6-yl)-3-(4-iodophenyl)-4,5-dihydro-1H-pyrazol-1-yl)benzenesulfonamide] | 2.17 ± 0.05 µM | 47.33 |  | 187 to 189 °C | 4.14 ± 0.21 µM | 38 ± 1.19 µM | 3.28 ± 0.17 µM | 3.12 ± 0.08 µM | 3.95 ± 0.18 µM | 41.18 ± 0.17 µM
4 | NS(=O)(=O)c1ccc(N2N=C(c3ccccc3F)CC2c2ccc3c(c2)OCO3)cc1 (centres unmarked) [Compound 4j, 4-(5-(Benzo[d][1,3]dioxol-5-yl)-3-(2-fluorophenyl)-4,5-dihydro-1H-pyrazol-1-yl)benzenesulfonamide] | 4.54 ± 0.29 µM | >33.15 | 1810 ± 90 nM | 180 to 181 °C | 8.41 ± 0.29 µM | 137 ± 12.7 µM | 11.8 ± 0.96 µM | 5.86 ± 0.36 µM | 7.51 ± 0.57 µM | > 60 µM
5 | NS(=O)(=O)c1ccc(N2N=C(c3ccccc3F)CC2c2ccc3c(c2)OCCO3)cc1 (centres unmarked) [Compound 4y, 4-(5-(2,3-Dihydrobenzo[b][1,4]dioxin-6-yl)-3-(2-fluorophenyl)-4,5-dihydro-1H-pyrazol-1-yl)benzenesulfonamide] | 5.51 ± 0.37 µM | >27.40 | 2190 ± 210 nM | 191 to 192 °C | 10.2 ± 0.72 µM | 178 ± 12.7 µM | 15.4 ± 0.84 µM | 7.83 ± 0.58 µM | 8.96 ± 0.74 µM | > 60 µM
6 | NS(=O)(=O)c1ccc(N2N=C(c3ccc(Cl)cc3)CC2c2ccc3c(c2)OCCO3)cc1 (centres unmarked) [Compound 4p, 4-(3-(4-Chlorophenyl)-5-(2,3-dihydrobenzo[b][1,4]dioxin-6-yl)-4,5-dihydro-1H-pyrazol-1-yl)benzenesulfonamide] | 3.53 ± 0.16 µM | 26.46 | 1410 ± 70 nM | 146 to 148 °C | 6.58 ± 0.49 µM | 94.7 ± 3.65 µM | 8.16 ± 0.63 µM | 3.83 ± 0.26 µM | 5.99 ± 0.38 µM | 37.32 ± 0.18 µM
7 | Cc1ccc(C2=NN(c3ccc(S(N)(=O)=O)cc3)C(c3ccc4c(c3)OCO4)C2)c(C)c1 (centres unmarked) [Compound 4i, 4-(5-(Benzo[d][1,3]dioxol-5-yl)-3-(2,4-dimethylphenyl)-4,5-dihydro-1H-pyrazol-1-yl)benzenesulfonamide] | 4.96 ± 0.38 µM | >30.30 | 1980 ± 150 nM | 180 to 182 °C | 9.16 ± 0.37 µM | 155 ± 12.7 µM | 13.3 ± 0.89 µM | 6.71 ± 0.57 µM | 8.14 ± 0.69 µM | > 60 µM
8 | CCOc1ccc(C2=NN(c3ccc(S(N)(=O)=O)cc3)C(c3ccc4c(c3)OCO4)C2)cc1 (centres unmarked) [Compound 4c, 4-(5-(Benzo[d][1,3]dioxol-5-yl)-3-(4-ethoxyphenyl)-4,5-dihydro-1H-pyrazol-1-yl)benzenesulfonamide] | 5.07 ± 0.26 µM | 10.45 | 2020 ± 130 nM | 182 to 184 °C | 9.37 ± 0.9 µM | 159 ± 11.4 µM | 13.7 ± 0.93 µM | 6.93 ± 0.17 µM | 8.31 ± 0.67 µM | 21.11 ± 0.19 µM
9 | NS(=O)(=O)c1ccc(N2N=C(c3ccc(Br)cc3)CC2c2ccc3c(c2)OCCO3)cc1 (centres unmarked) [Compound 4q, 4-(3-(4-Bromophenyl)-5-(2,3-dihydrobenzo[b][1,4]dioxin-6-yl)-4,5-dihydro-1H-pyrazol-1-yl)benzenesulfonamide] | 3.18 ± 0.19 µM | 20.98 | 1270 ± 30 nM | 153 to 154 °C | 5.96 ± 0.39 µM | 80.3 ± 8.01 µM | 6.92 ± 0.28 µM | 3.14 ± 0.25 µM | 5.47 ± 0.29 µM | 26.64 ± 0.26 µM
10 | NS(=O)(=O)c1ccc(N2N=C(c3ccc(I)cc3)CC2c2ccc3c(c2)OCO3)cc1 (centres unmarked) [Compound 4d, 4-(5-(Benzo[d][1,3]dioxol-5-yl)-3-(4-iodophenyl)-4,5-dihydro-1H-pyrazol-1-yl)benzenesulfonamide] | 3.04 ± 0.17 µM | 21.53 | 1200 ± 50 nM | 212 to 214 °C | 5.71 ± 0.47 µM | 74.5 ± 5.23 µM | 6.42 ± 0.25 µM | 2.86 ± 0.06 µM | 5.26 ± 0.42 µM | 25.84 ± 0.21 µM
11 | NS(=O)(=O)c1ccc(N2N=C(c3cccc(F)c3)CC2c2ccc3c(c2)OCO3)cc1 (centres unmarked) [Compound 4h, 4-(5-(Benzo[d][1,3]dioxol-5-yl)-3-(3-fluorophenyl)-4,5-dihydro-1H-pyrazol-1-yl)benzenesulfonamide] | 3.24 ± 0.18 µM | 41.33 | 1280 ± 70 nM | 192 to 193 °C | 6.07 ± 0.41 µM | 82.8 ± 7.59 µM | 7.14 ± 0.66 µM | 3.26 ± 0.29 µM | 5.56 ± 0.38 µM | 52.91 ± 0.39 µM
12 | COc1cccc(C2=NN(c3ccc(S(N)(=O)=O)cc3)C(c3ccc4c(c3)OCCO4)C2)c1 (centres unmarked) [Compound 4u, 4-(5-(2,3-Dihydrobenzo[b][1,4]dioxin-6-yl)-3-(3-methoxyphenyl)-4,5-dihydro-1H-pyrazol-1-yl)benzenesulfonamide] | 6.63 ± 0.42 µM | >22.73 | 2640 ± 170 nM | 146 to 147 °C | 12.2 ± 0.85 µM | 178 ± 10.7 µM | 15.3 ± 1.09 µM | 7.81 ± 0.37 µM | 10.6 ± 0.67 µM | > 60 µM

— paper PMC6539903 (Molecules, 2019)
